Assay results as given in paper PMC6522510 (Nature Communications, 2019).
Read-outs that look alike come from different tables or passages of the source.

Assays:
MOLM-13 [1] = assay: Secondary dose-response HTS, Cell Titer Glo; format: cell-based, human; settings: secondary high-throughput screen, MOLM-13; for EC50: read-out: average effective concentration, MOLM-13
MV4-11 [2] = assay: Secondary dose-response HTS, Cell Titer Glo; format: cell-based, human; settings: secondary high-throughput screen, MV4-11; for EC50: read-out: average effective concentration, MV4-11
CMK [3] = assay: Secondary dose-response HTS, Cell Titer Glo; format: cell-based, human; settings: CMK; for EC50: read-out: average effective concentration, CMK
M07e [4] = assay: Secondary dose-response HTS, Cell Titer Glo; format: cell-based, human; settings: secondary high-throughput screen; for EC50: read-out: average effective concentration, M07e
ML2 = assay: Secondary dose-response HTS, Cell Titer Glo; format: cell-based, human; settings: secondary high-throughput screen, ML-2; for EC50: read-out: average effective concentration, ML-2
U937 [5] = assay: Secondary dose-response HTS, Cell Titer Glo; format: cell-based, human; settings: secondary high-throughput screen, U937; for EC50: read-out: average effective concentration, U937
CMS [6] = assay: Secondary dose-response HTS, Cell Titer Glo; format: cell-based, human; settings: Homo sapiens, HTS; secondary high-throughput screen; CMS; read-out: average effective concentration, CMS
CHRF288-11 [7] = assay: cells; set-up: species or system AML cell lines (8); Secondary HTS, 10-point dose-response in triplicate, Cell Titer Glo viability, four-parameter fit EC50; settings: 72 h, read-out: CHRF288-11
CMK [8] = assay: cells; set-up: species or system AML cell lines (8); Secondary HTS, 10-point dose-response in triplicate, Cell Titer Glo viability, four-parameter fit EC50; settings: Homo sapiens, CMK, 72 h, read-out: CMK
M07e [9] = assay: cells; set-up: species or system AML cell lines (8); Secondary HTS, 10-point dose-response in triplicate, Cell Titer Glo viability, four-parameter fit EC50; settings: M-07e, 72 h, read-out: M07e
CHRF288-11 [10] = assay: Secondary dose-response HTS, Cell Titer Glo; format: cell-based, human; settings: secondary high-throughput screen, CHRF288-11; for EC50: Homo sapiens, HTS, read-out: average effective concentration, CHRF288-11
CMS [11] = assay: cells; set-up: species or system AML cell lines (8); Secondary HTS, 10-point dose-response in triplicate, Cell Titer Glo viability, four-parameter fit EC50; settings: 72 h, read-out: CMS
MOLM-13 [12] = assay: cells; set-up: species or system AML cell lines (8); Secondary HTS, 10-point dose-response in triplicate, Cell Titer Glo viability, four-parameter fit EC50; settings: Homo sapiens, MOLM-13, 72 h, read-out: MOLM-13
MV4-11 [13] = assay: cells; set-up: species or system AML cell lines (8); Secondary HTS, 10-point dose-response in triplicate, Cell Titer Glo viability, four-parameter fit EC50; settings: Homo sapiens, MV4-11, 72 h, read-out: MV4-11
U937 [14] = assay: cells; set-up: species or system AML cell lines (8); Secondary HTS, 10-point dose-response in triplicate, Cell Titer Glo viability, four-parameter fit EC50; settings: Homo sapiens, U-937, 72 h, read-out: U937
[15] = secondary high-throughput screen
[16] = Homo sapiens, secondary high-throughput screen

O=C(/C=C/c1cccc(C(=O)NO)c1)NO [CBHA]
EC50 (MOLM-13 [1]): 2400 nM
average effective concentration, MV4-11 (MV4-11 [2]): Inactive
average effective concentration, CMK (CMK [3]; [15]): Inactive
EC50 (M07e [4]; M07e): 2200 nM
EC50 (ML2): 5200 nM
EC50 (U937 [5]): 1300 nM

CN1CC[C@H](c2c(O)cc(O)c3c(=O)cc(-c4ccccc4Cl)oc23)[C@H](O)C1 [ALVOCIDIB]
EC50 (MOLM-13 [1]; Homo sapiens): 36 nM
EC50 (MV4-11 [2]; Homo sapiens): 50 nM
EC50 (CMS [6]): 64 nM
EC50 (ML2; Homo sapiens): 47 nM
EC50 (U937 [5]; Homo sapiens, U-937): 29 nM
EC50 (CHRF288-11 [7]): > 10000 nM
EC50 (CMK [8]): > 10000 nM
EC50 (M07e [9]): > 10000 nM

COc1cccc2c1C(=O)c1c(O)c3c(c(O)c1C2=O)C[C@@](O)(C(C)=O)C[C@@H]3O[C@H]1C[C@H](N)[C@H](O)[C@H](C)O1 [DAUNORUBICIN]
EC50 (MOLM-13 [1]; Homo sapiens): 43 nM
EC50 (MV4-11 [2]; Homo sapiens): 23 nM
EC50 (CHRF288-11 [10]): 1 nM
EC50 (CMK [3]; [16]): 35 nM
EC50 (M07e [4]; Homo sapiens, M-07e, […]): 9 nM
EC50 (ML2; Homo sapiens): 1 nM
EC50 (U937 [5]; Homo sapiens, U-937): 4.3 nM

COc1ccc(Cn2ccc3ccc(C(=O)NO)cc32)cc1 [PCI 34051]
average effective concentration, MOLM-13 (MOLM-13 [1]): Inactive
average effective concentration, MV4-11 (MV4-11 [2]): Inactive
average effective concentration, CHRF288-11 (CHRF288-11 [10]): Inactive
average effective concentration, CMK (CMK [3]; [15]): Inactive
average effective concentration, M07e (M07e [4]; […]): Inactive
average effective concentration, ML-2 (ML2): Inactive
average effective concentration, U937 (U937 [5]): Inactive

COc1ccc(-c2cc3c(C)nc(N)nc3n([C@H]3CC[C@H](OCCO)CC3)c2=O)cn1 [PF-04691502]
average effective concentration, M07e (M07e [4]; M07e): Inactive

CCOc1cc(N2CCC(O)CC2)ccc1Nc1ncc2c(n1)N(C)c1ccccc1C(=O)N2C [XMD 8-92]
average effective concentration, CHRF288-11 (CHRF288-11 [10]): Inactive
average effective concentration, M07e (M07e [4]; M07e): Inactive
average effective concentration, ML-2 (ML2): Inactive

O=c1[nH]c2sccc2c2ccccc12 [TIQ-A]
EC50 (MOLM-13 [1]): 4200 nM
EC50 (MV4-11 [2]): 3500 nM
average effective concentration, CHRF288-11 (CHRF288-11 [10]): Inactive
average effective concentration, CMK (CMK [3]; [15]): Inactive
EC50 (M07e [4]; M07e): 7000 nM
average effective concentration, ML-2 (ML2): Inactive
average effective concentration, U937 (U937 [5]): Inactive

Cn1cc(C(=O)Cc2ccccc2)cc1/C=C/C(=O)NO [MC 1293]
average effective concentration, MV4-11 (MV4-11 [2]): Inactive
average effective concentration, CHRF288-11 (CHRF288-11 [10]): Inactive
EC50 (CMK [3]; [15]): 8700 nM
EC50 (M07e [4]; M07e): 450 nM
average effective concentration, U937 (U937 [5]): Inactive

COc1c(C)c2c(c(O)c1C/C=C(\C)CCC(=O)OCCN1CCOCC1)C(=O)OC2 [MYCOPHENOLATE MOFETIL]
EC50 (MOLM-13 [1]; Homo sapiens): 1500 nM
EC50 (MV4-11 [2]; Homo sapiens): 1900 nM
EC50 (CHRF288-11 [10]): 2900 nM
EC50 (CMK [3]; Homo sapiens): 7500 nM
EC50 (M07e [4]; Homo sapiens, M-07e, M07e): > 10000 nM
EC50 (ML2; Homo sapiens): 1300 nM
EC50 (U937 [5]; Homo sapiens, U-937): 3000 nM
EC50 (CMS [11]): > 10000 nM

N#CN=C(NCCCCCCOc1ccc(Cl)cc1)Nc1ccncc1 [GMX-1778]
EC50 (MOLM-13 [1]; Homo sapiens): 3.6 nM
EC50 (MV4-11 [2]; Homo sapiens): 1.1 nM
EC50 (CHRF288-11 [10]): 0.48 nM
EC50 (CMK [3]; [16]): 5.6 nM
EC50 (M07e [4]; Homo sapiens, M-07e, […]): 0.52 nM
EC50 (ML2; Homo sapiens): 0.35 nM
EC50 (U937 [5]; Homo sapiens, U-937): 5 nM
EC50 (CMS [11]): > 10000 nM

OC(c1cc(C(F)(F)F)nc2c(C(F)(F)F)cccc12)C1CCCCN1 (stereo not shown) [MEFLOQUINE]
EC50 (CHRF288-11 [10]): > 10000 nM
EC50 (CMS [6]): > 10000 nM
EC50 (ML2; Homo sapiens): > 10000 nM
EC50 (U937 [5]; Homo sapiens, U-937): > 10000 nM
EC50 (MOLM-13 [12]): > 10000 nM
EC50 (MV4-11 [13]): > 10000 nM
EC50 (CMK [8]): > 10000 nM
EC50 (M07e [9]): > 10000 nM

CN[C@@H]1C[C@H]2O[C@@](C)([C@@H]1OC)n1c3ccccc3c3c4c(c5c6ccccc6n2c5c31)C(=O)N[C@H]4O [Compound 7-HYDROXYSTAUROSPORINE]
average effective concentration, M07e (M07e [4]; […]): Inactive

CC(C)(C#N)c1ccc(N2C(=O)OCc3cnc4ccc(-c5cnc6ccccc6c5)cc4c32)cc1 [ETP-46464]
average effective concentration, MOLM-13 (MOLM-13 [1]): Inactive
average effective concentration, MV4-11 (MV4-11 [2]): Inactive
average effective concentration, M07e (M07e [4]; […]): Inactive

CCOC(=O)C1=C(C)NC2=C(C(=O)CC(C)(C)C2)C1c1ccc(-c2ccccc2)cc1 (stereo not shown) [ITD-1]
average effective concentration, MOLM-13 (MOLM-13 [1]): Inactive
average effective concentration, MV4-11 (MV4-11 [2]): Inactive
average effective concentration, CHRF288-11 (CHRF288-11 [10]): Inactive
average effective concentration, CMK (CMK [3]; [15]): Inactive
average effective concentration, M07e (M07e [4]; M07e): Inactive
average effective concentration, ML-2 (ML2): Inactive
average effective concentration, U937 (U937 [5]): Inactive

Cn1c(Nc2ccc(C(F)(F)F)cc2)nc2cc(Oc3ccnc(-c4ncc(C(F)(F)F)[nH]4)c3)ccc21 [CHIR-265]
EC50 (CHRF288-11 [10]): 6800 nM
EC50 (CMS [6]): 10000 nM
EC50 (ML2; Homo sapiens): > 10000 nM
EC50 (MOLM-13 [12]): > 10000 nM
EC50 (MV4-11 [13]): > 10000 nM
EC50 (CMK [8]): > 10000 nM
EC50 (M07e [9]): > 10000 nM
EC50 (U937 [14]): > 10000 nM

CC(=O)Nc1ccc(NC(=S)NC(=O)c2ccc(C(C)(C)C)cc2)cc1 [TENOVIN-1]
average effective concentration, MOLM-13 (MOLM-13 [1]): Inactive
average effective concentration, MV4-11 (MV4-11 [2]): Inactive
average effective concentration, CHRF288-11 (CHRF288-11 [10]): Inactive
average effective concentration, CMK (CMK [3]; [15]): Inactive
average effective concentration, M07e (M07e [4]; M07e): Inactive
average effective concentration, ML-2 (ML2): Inactive

CC(C)c1cccc(C(C)C)c1N1C(=O)c2ccc(O)cc2C1=O [Compound 5HPP-33]
average effective concentration, MOLM-13 (MOLM-13 [1]): Inactive
average effective concentration, MV4-11 (MV4-11 [2]): Inactive
average effective concentration, CHRF288-11 (CHRF288-11 [10]): Inactive
average effective concentration, CMK (CMK [3]; [15]): Inactive
average effective concentration, M07e (M07e [4]; M07e): Inactive

N#Cc1ccc(COC[C@H]2O[C@@H](n3c(NCc4ccc(Cl)c(Cl)c4)nc4c(N)ncnc43)[C@H](O)[C@@H]2O)cc1 [VER-155008]
average effective concentration, MOLM-13 (MOLM-13 [1]): Inactive
average effective concentration, MV4-11 (MV4-11 [2]): Inactive
average effective concentration, CHRF288-11 (CHRF288-11 [10]): Inactive
average effective concentration, CMK (CMK [3]; [15]): Inactive
average effective concentration, M07e (M07e [4]; M07e): Inactive
average effective concentration, ML-2 (ML2): Inactive
average effective concentration, U937 (U937 [5]): Inactive

Nc1ncn([C@@H]2O[C@H](CO)[C@@H](O)[C@H]2O)c(=O)n1 [Compound 5-AZACYTIDINE]
average effective concentration, MV4-11 (MV4-11 [2]): Inactive
average effective concentration, CHRF288-11 (CHRF288-11 [10]): Inactive
average effective concentration, M07e (M07e [4]; M07e): Inactive

CCNC(=O)c1cc2c(-c3cc(OCCN4CCCC4)c(Cl)cc3Cl)nc(N)nc2s1 [NVP-BEP800]
average effective concentration, M07e (M07e [4]; […]): Inactive
